# How the values were obtained:
# EAE model rats [1] = test: Preventive continuous administration into the subarachnoid cavity of EAE model rats, pain threshold; assay type: in vivo, rat; conditions: preventive continuous administration into the subarachnoid cavity 10 nmol/5 μL/hr for about 14 days, FIG. 5
# Protocol: A polystyrene catheter having an external diameter of 0.30 mm was detained in the subarachnoid cavity in each of 10 weeks old LEW/CrlCrlj female rats. After about one week from the detainment of the catheter for administration in the subarachnoid cavity, EAE model rats were prepared by the same method as that of Example 2.
# EAE model animals = conditions: reported in the literature; cited from earlier work
# EAE model rats [2] = test: Preventive repetitive oral administration to EAE model rats, pain threshold (von Frey, up-down method), symptoms (EAE score), weight; assay type: in vivo, rat; conditions: orally twice a day 10 mg/kg over 22 days from Day 0, von Frey 50% pain threshold, FIG. 3
# Protocol: (§1) EAE model rats were prepared by the same method as that of Example 2. […] For symptom observation, behaviors of the animals allowed to freely act were scored in accordance with the criteria shown in Table 111. The pain threshold was measured after the animals were put into a cage for measurement of which floor is made of a wire gauze, and acclimatized in the environment for 20 minutes or longer. The measurement of the pain threshold was performed according to the method of Chaplan et al. using 7 of von Frey filaments giving different stimulation intensities, and the 50% pain threshold was calculated by the up-down method of Dixon.
# EAE model rats [3] = test: Therapeutic repetitive oral administration to EAE model rats, pain threshold; assay type: in vivo, rat; conditions: orally twice a day 10 mg/kg over 21 days from Day 10 (average EAE score 2 or larger), FIG. 4
# Protocol: as §1
# EAE model rats were prepared by the same method as that of Example 2.
smiles,measurement,setting,value
"O=C1CC(=O)N(c2cccc(-c3nnn[nH]3)c2)c2ccc3ccccc3c2N1.[Na] [compound B, 5-[3-(1H-tetrazol-5-yl)phenyl]-1H-naphtho[1,2-b][1,4]diazepine-2,4(3H,5H)-dione sodium salt]",influence on the pain threshold (mechanical allodynia induced by EAE),EAE model rats [1],suppressed mechanical allodynia induced by EAE
CN1CC[C@]23c4c5ccc(O)c4O[C@H]2[C@@H](O)C=C[C@H]3[C@H]1C5 [morphine],analgesic action in allodynia observed in the EAE model,EAE model animals,markedly decreases
"O=C1CC(=O)N(c2ccc(NC(=O)c3ccccc3I)cc2)c2ccc3ccccc3c2N1 [compound A, 5-[4-(2-iodobenzoyl)aminophenyl]-1H-naphtho[1,2-b][1,4]diazepine-2,4(3H,5H)-dione]",influence on the pain threshold (mechanical allodynia induced by EAE),EAE model rats [2],continuously suppressed mechanical allodynia induced by EAE
same,influence on the pain threshold (mechanical allodynia induced by EAE),EAE model rats [3],suppressed mechanical allodynia induced by EAE
